The results in this text go back to US20250059232A1, “PENTAPEPTIDE AND USE THEREOF” (ENSOL BIOSCIENCES INC., priority 2021, published 2025).

Assay [1] concerns MDA-MB-231. As to the kind of experiment: MDA-MB-231 cell viability (CCK-8) in NK92 co-culture with anti-PD-L1. In kind it is cell-based, human. As to conditions: 300 uM with 10 ug/ml anti-PD-L1, 24/48/72 hours of co-culturing. The method, then: The experiment described below was performed to evaluate the tumor cell proliferation inhibitory effect of the combination treatment of the peptide of Example 1 and the anti-PD-L1, which is an immune checkpoint inhibitor. First, 5×10^3 cells of a human prostate cancer cell line PC3, 5×10^3 cells of a human lung cancer cell line A549 (Korean Cell Line Bank), and 1×10^4 cells of a human triple negative breast cancer cell line MDA-MB-231 (ATCC) were seeded in 96 wells and stabilized by culturing overnight. Then, the seeded cells were treated with 10 ug/ml of the anti-PD-L1 and 300 uM of the peptide of Example 1, for each condition while NK92 cells for 5×10^3 cells of each of the PC3 cell line and the MDA-MB-231 cell line and 2.5×10^3 cells of the A549 cell line were additionally seeded. After 24/48/72 hours of co-culturing (for PC3 and MDA-MB-231) and 24/48 hours of co-culturing (for A549), the NK92 cells were removed by washing, and the cancer cell viability was measured by CCK-8 addition. FIG. 15 is a graph illustrating the changes in PC3 cell viability over culturing time for each test group in an anticancer effect evaluation test. In FIG. 15, the x-axis represents culturing time and the y-axis represents cell viability (%). FIG. 16 is a graph illustrating the changes in A549 cell viability over culturing time for each test group in an anticancer effect evaluation test. […]

The subject of assay [2] is PC3 cells co-cultured with NK92 cells. As to the kind of experiment: PC3/NK92 co-culture: Western blot of LC3II and cleaved PARP. In kind it is cell-based, human. The note with it: 300 uM with 10 μg/ml anti-PD-L1. The method, then:
In addition, the expression of LC3II, which is an autophagy marker, and the expression of cleaved PARP, which is a cell death marker, were determined by a Western blot test. 1×10^6 PC3 cells were seeded in 6 wells and stabilized by culturing overnight, and the PC3 cells were treated with 10 μg/ml of the anti-PD-L1 and 300 uM of the peptide of Example 1 for each condition while the same number of NK92 cells were additionally seeded. After a predetermined period of treatment, the NK92 cells were removed by washing, and proteins were isolated from the tumor cells to determine LC3II (12 h) and PARP (24 h) expression changes. The expression amounts of each marker were calculated as proportions relative to the control. FIG. 13 is a graph showing the amount of cleaved PARP expression compared to PARP for each test group in the anticancer effect evaluation test in which the x-axis represents test groups and the y-axis represents the amount (%) of cleaved PARP expression compared to the PARP. FIG. 14 is a graph showing the amount of LC3II expression compared to actin for each test group in an anticancer effect evaluation test, in which the x-axis represents test groups, and the y-axis represents the amount (%) of LC3II expression compared to actin in the test group.
On the technique in general: In western blotting, separated proteins are transferred to a membrane and probed.

Assay [3] deals with MDA-MB-231. Put plainly: MDA-MB-231 fat pad xenograft in athymic nude mouse: tumor volume and weight. Type of assay: in vivo, human. The method, then:
5×10^6 cells/head of the human triple negative breast cancer cell line MDA-MB-231 (American Type Culture Collection (ATCC)) were mixed with Matrigel and PBS (1:1). 100 ul of the mixture was injected into the right third fat pad of 7-week-old female athymic nude mouse. After the transplantation, drug administration started from an average tumor size of 80 mm^3. Paclitaxel 20 mg/kg was administered on Day 0 and on Day 1. That is, the paclitaxel 20 mg/kg was administered a total of two times. Then, the peptide of Example 1 was administered in a dose of 100 mg/kg on Day 2, Day 4, and Day 6. That is, the peptide of Example 1 was administered a total of three times. Tumor volumes were measured 3 times a week for 3 weeks after administration of the first dose. Tumor weights were measured by necropsy after the end of the experiment. For each group, ten mice were used.
Tumor volume changes over time for each group are shown in FIG. 8, and tumor weight on the eighteenth day after the administration of the first dose for each group is shown in FIG. 9. FIG. 8 is a graph illustrating the changes in tumor volume over time after sample administration in animal experimentation. In FIG. 8, the x-axis represents the number of days elapsed after the start of administration and the y-axis represents the tumor volume change (mm^3). FIG. 9 is a graph illustrating a tumor weight for each test group in animal experimentation. In FIG. 9, the x-axis represents test groups and the y-axis represents tumor weights (mg).

A further assay deals with PC3. Put plainly: PC3 cell viability (CCK-8) in NK92 co-culture with anti-PD-1. In kind it is cell-based, human. The note with it: 100 or 300 uM with 10 μg/ml anti-PD-1, 48/72 hours, P<0.05. The method, then:
The experiment described below was performed to evaluate the tumor cell proliferation inhibitory effect of the combination treatment of the peptide of Example 1 and anti-PD-1, which is another immune checkpoint inhibitor. First, 5×10^3 cells of a human prostate cancer cell line PC3 were seeded in 96 wells and stabilized by culturing overnight. Next, 5×10^3 NK92 cells were additionally seeded, and the test cells were treated with 10 μg/ml of the anti-PD-1 and 100 or 300 uM of the peptide of Example 1 for each condition. After 48/72 hours of co-culturing, the NK92 cells were removed by washing, and the cell viability of the PC3 cells was measured by CCK-8 addition. FIG. 18 is a graph illustrating changes in PC3 cell viability over culturing time for each test group in an anticancer effect evaluation test. In FIG. 18, the x-axis represents culturing time and the y-axis represents cell viability (%).

[4] abbreviates: 100 mg/kg co-administered with paclitaxel, eighteenth day after first dose.

For the substance Ac-QLHLD-OH [Example 1, acetyl-QLHLD], the “Cancer cell viability compared to the group treated with only anti-PD-L1” value in the assay on MDA-MB-231 [1] is “significant decrease in cancer cell viability”. For the same substance, the “LC3II expression compared to the group treated with only anti-PD-L1” value in assay [2] (12 h, P<0.001) is “significantly decreased”. Besides, in assay [2] (24 h, P<0.05), the “Cleaved PARP expression compared to the group treated with only anti-PD-L1” value is reported as “significantly increased”. In addition, in the assay with MDA-MB-231 [3] (100 mg/kg Day 2, 4, 6 after paclitaxel 20 mg/kg Day 0 and 1, ten mice), the “CR (mice in which the tumor disappeared)” value is on record as 20%. For the same substance, in the assay on MDA-MB-231 [3] (setting [4]), the “Reduction in tumor volume compared to control group” value is reported as 48% and the “Reduction in tumor weight compared to control group” value is reported as 51%. Moreover, the “Day on which the tumor disappeared” value with MDA-MB-231 [3] (co-administered with paclitaxel, two mice) came out at 14 days. The “Duration of the efficacy of a single-cycle drug treatment” value with MDA-MB-231 [3] (combination administration with paclitaxel) was no more than 2 weeks. For the same substance, in the assay with PC3, the “Cancer cell viability compared to the checkpoint-inhibitor-only group” value was “significant decrease”.
